Measurements taken from US8168651B2, “Protein kinase modulators” (Cylene Pharmaceuticals, Inc., priority 2008, dated 2012).
One block for each compound: values may come before it.

Legend:
Experiment in all cases: Standardized radiometric kinase assays, percentage of activity at 0.5 μM;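 note: Read-out is ³³P-labelled substrate protein phosphorylated by each kinase, captured on filters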
[1] = target: each individual kinase of the panel (Homo sapiens, UniProt P80192); settings: for % Activity: MLK1(h)
[2] = target: each individual kinase of the panel (Homo sapiens, UniProt P11309); settings: for % Activity: Pim-1(h)
[3] = target: each individual kinase of the panel (Homo sapiens, UniProt P06239); settings: for % Activity: Lck(h)
[4] = target: each individual kinase of the panel (Homo sapiens, UniProt P10721); settings: for % Activity: cKit(h)
[5] = target: each individual kinase of the panel (Homo sapiens, UniProt P43403); settings: for % Activity: ZAP-70(h)
[6] = target: each individual kinase of the panel (Homo sapiens, UniProt P17948); settings: for % Activity: Flt1(h)
[7] = target: each individual kinase of the panel (Homo sapiens, UniProt P04629); settings: for % Activity: TrkA(h)
[8] = target: each individual kinase of the panel (Homo sapiens, UniProt Q9BZL6); settings: for % Activity: PKD2(h)
[9] = target: each individual kinase of the panel (Homo sapiens, UniProt Q86V86); settings: for % Activity: Pim-3(h)
[10] = target: each individual kinase of the panel (Homo sapiens, UniProt P16234, D842V); settings: for % Activity: PDGFRα(D842V)(h)
[11] = target: each individual kinase of the panel (Homo sapiens, UniProt P06241); settings: for % Activity: Fyn(h)
[12] = target: each individual kinase of the panel (Homo sapiens, UniProt Q9P1W9); settings: for % Activity: Pim-2(h)
[13] = target: each individual kinase of the panel (Homo sapiens, UniProt Q02763); settings: for % Activity: Tie2(h)
[14] = target: each individual kinase of the panel (Homo sapiens, UniProt Q14680); settings: for % Activity: MELK(h)
[15] = target: each individual kinase of the panel (Homo sapiens, UniProt P08631); settings: for % Activity: Hck(h)
[16] = target: each individual kinase of the panel (Homo sapiens, UniProt P17252); settings: for % Activity: PKCα(h)
[17] = target: each individual kinase of the panel (Homo sapiens, UniProt P54760); settings: for % Activity: EphB4(h)
[18] = target: each individual kinase of the panel (Homo sapiens, UniProt P04049); settings: for % Activity: c-RAF(h)
[19] = target: each individual kinase of the panel (Homo sapiens, UniProt P07949); settings: for % Activity: Ret(h)
[20] = target: each individual kinase of the panel (Homo sapiens, UniProt P08069); settings: for % Activity: IGF-1R(h)
[21] = target: each individual kinase of the panel (Homo sapiens, UniProt P16591); settings: for % Activity: Fer(h)
[22] = target: each individual kinase of the panel (Homo sapiens, UniProt Q15418); settings: for % Activity: Rsk1(h)
[23] = target: each individual kinase of the panel (Homo sapiens, UniProt O15530); settings: for % Activity: PDK1(h)
[24] = target: each individual kinase of the panel (Homo sapiens, UniProt Q13976); settings: for % Activity: PKG1α(h)
[25] = target: each individual kinase of the panel (Homo sapiens, UniProt Q9NWZ3); settings: for % Activity: IRAK4(h)
[26] = target: each individual kinase of the panel (Homo sapiens, UniProt P07947); settings: for % Activity: Yes(h)
[27] = target: each individual kinase of the panel (Homo sapiens, UniProt O00418); settings: for % Activity: eEF-2K(h)
[28] = target: each individual kinase of the panel (Homo sapiens, UniProt P06213); settings: for % Activity: IR(h)
[29] = target: each individual kinase of the panel (Homo sapiens, UniProt P08922)
Chain of each individual kinase of the panel (Homo sapiens, UniProt P08922) (P08922 28-2347 limits assumed): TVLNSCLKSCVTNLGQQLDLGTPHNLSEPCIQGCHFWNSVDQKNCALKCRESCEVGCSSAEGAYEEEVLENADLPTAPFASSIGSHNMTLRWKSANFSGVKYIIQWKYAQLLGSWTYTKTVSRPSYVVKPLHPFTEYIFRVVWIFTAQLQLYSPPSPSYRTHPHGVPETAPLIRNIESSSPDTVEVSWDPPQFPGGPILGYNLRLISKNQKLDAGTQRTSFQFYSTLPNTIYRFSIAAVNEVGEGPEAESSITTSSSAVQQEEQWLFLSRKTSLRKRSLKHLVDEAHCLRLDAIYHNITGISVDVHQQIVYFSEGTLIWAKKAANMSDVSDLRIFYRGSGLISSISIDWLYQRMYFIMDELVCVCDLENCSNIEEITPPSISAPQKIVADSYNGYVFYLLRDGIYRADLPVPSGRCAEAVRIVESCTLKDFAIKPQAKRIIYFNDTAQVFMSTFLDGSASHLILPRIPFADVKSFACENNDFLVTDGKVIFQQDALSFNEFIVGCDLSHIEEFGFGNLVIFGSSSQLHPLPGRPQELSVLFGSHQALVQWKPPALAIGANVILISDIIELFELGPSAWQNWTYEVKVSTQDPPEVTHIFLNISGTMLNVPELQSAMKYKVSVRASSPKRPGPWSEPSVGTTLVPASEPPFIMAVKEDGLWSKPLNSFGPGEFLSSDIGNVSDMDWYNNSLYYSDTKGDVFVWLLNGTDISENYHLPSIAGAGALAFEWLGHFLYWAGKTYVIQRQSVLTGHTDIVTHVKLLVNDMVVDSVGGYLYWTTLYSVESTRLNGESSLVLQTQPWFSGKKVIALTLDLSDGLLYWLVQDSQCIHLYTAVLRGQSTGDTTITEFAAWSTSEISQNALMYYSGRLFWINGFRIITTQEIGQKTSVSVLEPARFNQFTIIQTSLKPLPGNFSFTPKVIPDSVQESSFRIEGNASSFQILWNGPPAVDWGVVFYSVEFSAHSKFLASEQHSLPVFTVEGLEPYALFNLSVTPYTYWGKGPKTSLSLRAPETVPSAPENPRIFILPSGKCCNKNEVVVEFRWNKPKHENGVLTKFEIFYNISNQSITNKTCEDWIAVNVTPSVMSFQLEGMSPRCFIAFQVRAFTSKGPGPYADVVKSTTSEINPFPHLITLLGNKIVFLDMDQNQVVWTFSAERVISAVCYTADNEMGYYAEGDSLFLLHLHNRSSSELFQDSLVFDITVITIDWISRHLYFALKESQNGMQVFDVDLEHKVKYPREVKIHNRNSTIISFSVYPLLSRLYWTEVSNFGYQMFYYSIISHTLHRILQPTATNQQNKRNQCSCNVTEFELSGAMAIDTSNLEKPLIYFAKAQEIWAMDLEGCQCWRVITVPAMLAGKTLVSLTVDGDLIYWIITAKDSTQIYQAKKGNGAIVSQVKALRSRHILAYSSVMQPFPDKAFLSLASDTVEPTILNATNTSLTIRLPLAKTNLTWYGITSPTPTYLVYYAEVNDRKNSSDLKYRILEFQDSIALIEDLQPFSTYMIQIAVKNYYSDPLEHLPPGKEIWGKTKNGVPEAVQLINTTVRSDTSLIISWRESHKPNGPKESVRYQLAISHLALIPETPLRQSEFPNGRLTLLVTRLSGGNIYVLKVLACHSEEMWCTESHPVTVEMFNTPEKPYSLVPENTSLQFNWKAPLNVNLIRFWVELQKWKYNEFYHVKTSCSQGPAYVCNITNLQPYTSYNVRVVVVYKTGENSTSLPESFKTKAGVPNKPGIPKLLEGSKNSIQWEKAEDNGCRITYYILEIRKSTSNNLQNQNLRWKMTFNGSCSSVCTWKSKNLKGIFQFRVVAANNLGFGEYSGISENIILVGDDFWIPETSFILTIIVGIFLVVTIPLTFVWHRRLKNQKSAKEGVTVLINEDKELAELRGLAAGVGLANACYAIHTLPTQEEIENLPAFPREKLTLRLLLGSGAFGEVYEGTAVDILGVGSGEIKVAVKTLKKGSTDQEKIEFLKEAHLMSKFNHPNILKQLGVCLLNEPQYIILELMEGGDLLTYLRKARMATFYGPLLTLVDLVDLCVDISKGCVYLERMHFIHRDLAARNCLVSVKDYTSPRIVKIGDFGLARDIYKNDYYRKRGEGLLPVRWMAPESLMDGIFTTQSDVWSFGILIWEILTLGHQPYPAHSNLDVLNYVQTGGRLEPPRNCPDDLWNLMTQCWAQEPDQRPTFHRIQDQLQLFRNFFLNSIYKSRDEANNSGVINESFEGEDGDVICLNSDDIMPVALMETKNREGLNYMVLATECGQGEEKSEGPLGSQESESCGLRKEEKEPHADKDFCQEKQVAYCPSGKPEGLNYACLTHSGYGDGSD

Chain of each individual kinase of the panel (Homo sapiens, UniProt P06239) (P06239 2-509 limits assumed): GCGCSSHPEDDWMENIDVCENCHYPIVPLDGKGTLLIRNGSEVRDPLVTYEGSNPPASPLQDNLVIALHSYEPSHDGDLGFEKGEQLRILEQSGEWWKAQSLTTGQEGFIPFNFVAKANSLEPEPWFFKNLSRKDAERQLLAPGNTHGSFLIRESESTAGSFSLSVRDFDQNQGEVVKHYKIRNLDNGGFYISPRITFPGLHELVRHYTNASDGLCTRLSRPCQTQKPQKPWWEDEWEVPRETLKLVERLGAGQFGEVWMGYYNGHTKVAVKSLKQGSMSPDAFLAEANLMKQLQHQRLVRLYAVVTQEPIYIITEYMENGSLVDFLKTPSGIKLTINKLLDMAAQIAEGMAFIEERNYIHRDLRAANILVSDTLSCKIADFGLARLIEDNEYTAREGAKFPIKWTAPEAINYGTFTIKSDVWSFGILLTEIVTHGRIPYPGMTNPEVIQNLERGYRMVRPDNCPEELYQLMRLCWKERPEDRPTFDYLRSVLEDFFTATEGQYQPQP
Chain of each individual kinase of the panel (Homo sapiens, UniProt P08631) (P08631 2-526 limits assumed): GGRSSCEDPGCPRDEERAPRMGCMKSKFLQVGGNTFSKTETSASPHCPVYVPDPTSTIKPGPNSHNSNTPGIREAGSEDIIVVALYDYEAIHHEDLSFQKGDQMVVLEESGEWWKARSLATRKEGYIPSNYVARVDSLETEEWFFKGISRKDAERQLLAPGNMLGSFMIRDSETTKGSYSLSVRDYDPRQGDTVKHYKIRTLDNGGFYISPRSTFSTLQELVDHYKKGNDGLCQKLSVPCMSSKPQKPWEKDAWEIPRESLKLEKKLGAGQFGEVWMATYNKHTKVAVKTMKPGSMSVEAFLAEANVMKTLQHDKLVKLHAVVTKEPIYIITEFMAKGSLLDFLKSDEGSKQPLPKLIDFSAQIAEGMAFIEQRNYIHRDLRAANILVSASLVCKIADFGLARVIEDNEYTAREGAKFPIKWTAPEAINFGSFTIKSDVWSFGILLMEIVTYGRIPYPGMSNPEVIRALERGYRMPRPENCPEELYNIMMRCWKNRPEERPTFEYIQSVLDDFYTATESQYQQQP
Chain of each individual kinase of the panel (Homo sapiens, UniProt P06213) (P06213 28-758 limits assumed): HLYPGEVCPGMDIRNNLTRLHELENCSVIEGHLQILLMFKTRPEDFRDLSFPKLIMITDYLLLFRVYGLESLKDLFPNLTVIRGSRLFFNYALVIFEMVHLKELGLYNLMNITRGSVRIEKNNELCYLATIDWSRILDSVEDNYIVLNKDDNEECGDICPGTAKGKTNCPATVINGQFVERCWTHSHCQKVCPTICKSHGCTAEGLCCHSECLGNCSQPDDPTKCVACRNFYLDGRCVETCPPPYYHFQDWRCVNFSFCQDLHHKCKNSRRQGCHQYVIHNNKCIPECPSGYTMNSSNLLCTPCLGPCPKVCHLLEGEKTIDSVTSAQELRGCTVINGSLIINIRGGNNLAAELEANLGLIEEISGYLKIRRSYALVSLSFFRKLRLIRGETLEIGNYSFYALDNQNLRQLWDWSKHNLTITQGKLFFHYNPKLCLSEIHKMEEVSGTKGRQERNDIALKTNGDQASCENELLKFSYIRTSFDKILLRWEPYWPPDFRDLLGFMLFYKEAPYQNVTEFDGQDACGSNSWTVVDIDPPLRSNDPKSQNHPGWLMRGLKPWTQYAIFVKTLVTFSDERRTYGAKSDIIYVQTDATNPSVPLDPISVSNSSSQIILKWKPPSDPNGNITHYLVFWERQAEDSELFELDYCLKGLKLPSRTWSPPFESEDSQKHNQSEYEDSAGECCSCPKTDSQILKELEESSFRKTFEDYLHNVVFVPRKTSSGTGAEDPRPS
Chain of each individual kinase of the panel (Homo sapiens, UniProt P06213) (P06213 763-1382 limits assumed): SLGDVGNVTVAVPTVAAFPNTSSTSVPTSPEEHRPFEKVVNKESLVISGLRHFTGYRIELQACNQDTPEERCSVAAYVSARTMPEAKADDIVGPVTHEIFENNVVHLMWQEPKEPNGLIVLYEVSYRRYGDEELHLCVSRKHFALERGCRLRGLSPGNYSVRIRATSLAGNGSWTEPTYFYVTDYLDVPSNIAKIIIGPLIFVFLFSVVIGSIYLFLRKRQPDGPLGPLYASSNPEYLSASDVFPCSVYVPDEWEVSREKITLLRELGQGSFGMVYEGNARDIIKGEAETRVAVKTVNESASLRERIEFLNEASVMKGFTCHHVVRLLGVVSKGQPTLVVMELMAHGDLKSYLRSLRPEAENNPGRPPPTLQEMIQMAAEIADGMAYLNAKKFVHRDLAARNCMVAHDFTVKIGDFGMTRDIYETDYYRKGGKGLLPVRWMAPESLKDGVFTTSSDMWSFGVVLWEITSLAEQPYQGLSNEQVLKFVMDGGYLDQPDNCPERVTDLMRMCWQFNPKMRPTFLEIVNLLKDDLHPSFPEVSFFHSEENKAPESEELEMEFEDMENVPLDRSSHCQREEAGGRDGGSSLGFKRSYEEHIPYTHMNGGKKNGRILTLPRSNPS

MLK1 percentage of activity [1]: 21%
PIM1 percentage of activity [2]: 75%
LCK percentage of activity [3]: 33%
cKit(h) percentage of activity [4]: 15%
ZAP70 percentage of activity [5]: 2%
FLT1 percentage of activity [6]: 75%
TRKA percentage of activity [7]: 56%
PRKd_nM2 percentage of activity [8]: 0%
PIM3 percentage of activity [9]: −2%
PDGFRA (D842V) percentage of activity [10]: 78%
FYN percentage of activity [11]: 18%
PIM2 percentage of activity [12]: 6%
TIE2 percentage of activity [13]: −12%
MELK percentage of activity [14]: 77%
HCK percentage of activity [15]: 26%
PRKCA percentage of activity [16]: 9%
ROS percentage of activity [29]: 5%
EPHB4 percentage of activity [17]: −8%
RAF1 percentage of activity [18]: 62%
RET percentage of activity [19]: 35%
IGF1R percentage of activity [20]: −9%
FER percentage of activity [21]: 6%
RPS6KA1 percentage of activity [22]: 54%
PDK1 percentage of activity [23]: 8%
PRKG1 percentage of activity [24]: −4%
IRAK4 percentage of activity [25]: 4%
YES percentage of activity [26]: 34%
eEF−2K(h) percentage of activity [27]: −8%
INSR percentage of activity [28]: −7%
SMILES: C#Cc1cccc(Nc2nc3cc(C(=O)O)ccc3c3cnccc23)c1 [drawing 1137]

MLK1 percentage of activity [1]: 49%
PIM1 percentage of activity [2]: 18%
LCK percentage of activity [3]: 79%
cKit(h) percentage of activity [4]: −10%
ZAP70 percentage of activity [5]: −2%
FLT1 percentage of activity [6]: 19%
TRKA percentage of activity [7]: 62%
PRKd_nM2 percentage of activity [8]: 25%
PDGFRA (D842V) percentage of activity [10]: 64%
FYN percentage of activity [11]: 32%
TIE2 percentage of activity [13]: 45%
MELK percentage of activity [14]: 73%
HCK percentage of activity [15]: 28%
PRKCA percentage of activity [16]: 1%
ROS percentage of activity [29]: −3%
EPHB4 percentage of activity [17]: −16%
RAF1 percentage of activity [18]: 62%
IGF1R percentage of activity [20]: −23%
FER percentage of activity [21]: 8%
RPS6KA1 percentage of activity [22]: 55%
PDK1 percentage of activity [23]: 7%
PRKG1 percentage of activity [24]: 4%
IRAK4 percentage of activity [25]: 12%
YES percentage of activity [26]: 30%
eEF−2K(h) percentage of activity [27]: −3%
INSR percentage of activity [28]: 0%
SMILES: NC(=O)c1ccc2c(c1)nc(Nc1cccc(Cl)c1)c1ccncc12 [drawing 1138]

MLK1 percentage of activity [1]: 20%
PIM1 percentage of activity [2]: 73%
cKit(h) percentage of activity [4]: −14%
ZAP70 percentage of activity [5]: −18%
FLT1 percentage of activity [6]: 5%
TRKA percentage of activity [7]: 10%
PRKd_nM2 percentage of activity [8]: −7%
PIM3 percentage of activity [9]: 13%
PDGFRA (D842V) percentage of activity [10]: −9%
FYN percentage of activity [11]: −14%
PIM2 percentage of activity [12]: 25%
TIE2 percentage of activity [13]: 1%
MELK percentage of activity [14]: 51%
HCK percentage of activity [15]: −11%
PRKCA percentage of activity [16]: 1%
ROS percentage of activity [29]: −10%
EPHB4 percentage of activity [17]: −44%
RAF1 percentage of activity [18]: 31%
RET percentage of activity [19]: 14%
IGF1R percentage of activity [20]: 27%
FER percentage of activity [21]: −3%
RPS6KA1 percentage of activity [22]: 22%
PDK1 percentage of activity [23]: −10%
PRKG1 percentage of activity [24]: −5%
IRAK4 percentage of activity [25]: −19%
YES percentage of activity [26]: −9%
eEF−2K(h) percentage of activity [27]: −6%
INSR percentage of activity [28]: −5%
SMILES: C#Cc1cccc(Nc2nc3cc(C(=O)O)ccc3c3cncnc23)c1 [drawing 1135]

Second part, the compound before the results:

SMILES: NC(=O)c1cccc2c1nc(Nc1cccc(Cl)c1)c1ccncc12 [B]
% Activity [1]: 77%
% Activity [2]: 9%
% Activity [3]: 24%
% Activity [4]: 88%
% Activity [5]: 106%
% Activity [6]: 66%
% Activity [7]: 23%
% Activity [8]: 86%
% Activity [9]: 65%
% Activity [10]: 15%
% Activity [11]: 49%
% Activity [12]: 46%
% Activity [13]: 93%
% Activity [14]: 14%
% Activity [15]: 62%
% Activity [16]: 97%
% Activity [17]: 105%
% Activity [18]: 69%
% Activity [19]: 73%
% Activity [20]: 90%
% Activity [21]: 103%
% Activity [22]: 21%
% Activity [23]: 88%
% Activity [24]: 34%
% Activity [25]: 81%
% Activity [26]: 44%
% Activity [27]: 93%
% Activity [28]: 95%

SMILES: Clc1ccccc1Nc1nc2c(-c3nnc[nH]3)cccc2c2cnccc12 [A]
% Activity [1]: 24%
% Activity [2]: 1%
% Activity [3]: 21%
% Activity [4]: 89%
% Activity [5]: 97%
% Activity [6]: 62%
% Activity [7]: 6%
% Activity [8]: 86%
% Activity [9]: 12%
% Activity [10]: 17%
% Activity [11]: 49%
% Activity [12]: 2%
% Activity [13]: 108%
% Activity [14]: 13%
% Activity [15]: 61%
% Activity [16]: 99%
% Activity ([29]; Ros(h)): 90%
% Activity [17]: 87%
% Activity [18]: 66%
% Activity [19]: 43%
% Activity [20]: 101%
% Activity [21]: 90%
% Activity [22]: 6%
% Activity [23]: 101%
% Activity [24]: 40%
% Activity [25]: 12%
% Activity [26]: 26%
% Activity [27]: 111%
% Activity [28]: 112%
